A short description of test [1]: Ferric reducing antioxidant power (FRAP) assay. The format is biochemical. The procedure: The FRAP assay was conducted following the method outlined by Rumpf et al.. The FRAP solution was prepared by mixing 300 mM acetate buffer (pH 3.6), 10 mM TPTZ (2,4,6-Tris(2-pyridyl)-s-triazine) in 40 mM hydrochloric acid, and 20 mM FeCl3 in a ratio of 10:1:1. In a 96-well plate, 10 μL of the sample was combined with 190 μL of the FRAP solution and incubated in the dark for 15 min. The absorbance of the mixture was then measured at 593 nm. FeSO4 was used to create the standard curve, and the results were expressed as millimoles of FeSO4 equivalent per milligram of protein (mM FeSO4/mg protein).

A short description of test [2]: DPPH radical scavenging assay. It counts as biochemical. Conditions: supplement tables; for DPPH, mean±SD: n = 3. On the procedure:
The DPPH radical scavenging activity of the sample was assessed following a modified protocol based on a previous study. In each well of a 96-well plate, 10 μL of the sample was added, followed by 190 μL of 0.1 mM DPPH solution in 70% ethanol. The mixture was then incubated at room temperature in the dark for 30 min. After the incubation period, the absorbance of the mixture was measured at 517 nm. The DPPH radical scavenging activity was calculated using the following equation (1):
DPPHradicalscavengingactivity%=Acontrol–Asample/Acontrol×100 (1)
In this equation, Acontrol represents the absorbance of a control solution containing all reagents except for the test samples, while Asample is the absorbance of the mixture (the sample combined with 0.1 mM DPPH). To determine the Trolox equivalent antioxidant capacity (TEAC), a Trolox standard curve was utilized. The results were expressed as millimoles of Trolox equivalents per milligram of protein (mM TE/mg protein).

The test system of another test is RAW 264.7. Description: Anti-inflammation assay: released NO in LPS-stimulated RAW 264.7 (Griess). The format is cell-based, Murine. To be noted: then 1 µg/mL LPS 24 h; for Released NO: peptide 10 µg/mL 1 h; for Released NO, mean±SD: peptide 10 µg/mL pre-treatment 1 h, Griess reagent, n = 3. The procedure:
Murine macrophage cells (RAW 264.7; ATCC TIB-71™) were cultured in Dulbecco’s Modified Eagle’s Medium (DMEM) that was supplemented with 10% heat-inactivated fetal bovine serum (FBS) and 1% antibiotic solution. Colorectal adenocarcinoma cells (CaCo-2; ATCC HTB 37™) were cultured in Eagle’s Minimum Essential Medium (EMEM), also supplemented with 10% heat-inactivated FBS and 1% antibiotic solution. Both cell types were maintained in a humidified incubator with 5% CO2. The cell culture medium was refreshed every three days.
The anti-inflammation assay was conducted following the method described by Barzkar et al. with slight modifications. RAW 264.7 (1 x 10^5 cells) was seeded into a 96-well plate to allow for cell attachment. After 24 h, the cells were pre-treated with fresh medium containing peptide samples at a concentration of 10 µg/mL for 1 h. Subsequently, the treated cells were stimulated with 1 µg/mL lipopolysaccharide (LPS) for an additional 24 h. Unstimulated cells were included as a negative control. At the end of the treatment period, the conditioned medium was collected for the determination of released nitric oxide (NO). Griess’s reagent (Promega) was utilized to measure the NO concentration, following the manufacturer’s instructions. A NO calibration curve was generated to quantify the released NO in the conditioned medium.
(In general: Griess reagent forms a coloured azo dye with nitrite.)

The test system of test [3] is angiotensin I-converting enzyme (ACE). Description: ACE inhibitory activity assay (fluorometric ACE activity assay kit). Conditions: peptide sample 1 mg/mL; for ACE inhibitory activity, mean±SD / inhibition: 37 °C, fluorescence ex 320/em 405 nm, n = 3, mean ± SD, SD. It counts as biochemical. The procedure: The ACE inhibitory activity assay was performed following the method outlined by Batista et al., with slight modifications, using a fluorometric angiotensin I-converting enzyme (ACE) activity assay kit from Sigma-Aldrich (catalog number CS0002), Burlington, Massachusetts, USA. In summary, 10 µ L of the sample (1 mg/mL for the peptide sample and 50 µg/mL for ramipril) was combined with 40 µ L of the ACE solution (CS0002B) in 96-well flat-bottom black plates at 37 °C for 5 min. Next, 50 µ L of the substrate solution (CS0002C) was added to this mixture to initiate the reaction. A fluorescence multiwell plate reader was used to monitor the changes in fluorescence. The sample’s fluorescence was measured every min for 5 min, with excitation at 320 nm and emission at 405 nm. All reagents, except the test sample, were prepared to assess the ACE positive control activity. A kit standard solution (CS0002D) was diluted with assay buffer (CS0002A) to create different concentrations (nmol) of the standard solution, allowing generation of a standard curve. The slope of the standard curve (RFU/nmol) and the slope of the sample kinetic curve were utilized to calculate the ACE activity using the following equation (3):
ACEactivitynmol/min=Slopesample/Slopestandard×DF (3)
Where Slopesample refers to the slope of the blank-subtracted sample curve (RFU/min), Slopestandard refers to the slope of the blank-subtracted standard curve (RFU/nmol), DF is the dilution factor, and 0.1 nmol/min is equivalent to […].
In this study, the results of ACE inhibitory activity are expressed as percentages. The ACE inhibitory activity (%) was calculated using the following equation (4):
ACEinhibitoryactivity%=ACEPC–ACES/ACEPC×100 (4)
Where ACEPC represents the ACE activity of the positive control, and ACES denotes the ACE activity of the sample.

Setting [4] is: 10 µL sample + 190 µL FRAP solution, 15 min dark, 593 nm, FeSO4 standard curve, mean ± SD, n = 3, SD.

“DAENKENVEE [P18, synthesized peptide identified from jellyfish fraction PUR20C]”: the FRAP was 4.40±0.43^H mM FeSO4/mg protein in test [1] (setting [4]); 4.89 mM FeSO4/mg protein in test [1] (supplement tables, replicate 1); 4.05 mM FeSO4/mg protein in test [1] (supplement tables, replicate 2); 4.26 mM FeSO4/mg protein in test [1] (supplement tables, replicate 3). For the same sequence, the “DPPH, mean±SD” value in test [2] is 6.03±0.79^D TE/mg protein. Besides, the figures for the DPPH in test [2] (replicate 1), in test [2] (replicate 2) and in test [2] (replicate 3) were 5.23 TE/mg protein, 6.03 TE/mg protein and 6.82 TE/mg protein, respectively. Further, the “Released NO” value in the test with RAW 264.7 (replicate 1) came to 34.13 µM; in the test on RAW 264.7 (replicate 2) it was 31.37 µM; with RAW 264.7 (replicate 3) it was 31.03 µM. The “Released NO, mean±SD” value in the test on RAW 264.7 is 32.18±1.70^F µM. In addition, the “ACE inhibitory activity, mean±SD” value in test [3] is on record as 22.80±2.33^G %. Further, the ACE inhibitory activity in test [3] (replicate 1) came to 20.13%; in test [3] (replicate 2), 23.85%; in test [3] (replicate 3), 24.42%.

As a reminder, the inhibition is the percentage by which the read-out fell short of the control. A lower inhibition goes with a response near the control. In the case of “EIDKLPPESRP [P7, synthesized peptide identified from jellyfish fraction PUR20C]”, the FRAP in test [1] (setting [4]) was 12.40±1.36^C mM FeSO4/mg protein; in test [1] (supplement tables, replicate 1), 11.00 mM FeSO4/mg protein; in test [1] (supplement tables, replicate 2), 13.73 mM FeSO4/mg protein; in test [1] (supplement tables, replicate 3), 12.47 mM FeSO4/mg protein. Further, in test [2], the “DPPH, mean±SD” value was 1.96 TE/mg protein. Also, the DPPH amounted to 1.52 TE/mg protein in test [2] (replicate 1), 1.78 TE/mg protein in test [2] (replicate 2) and 2.58 TE/mg protein in test [2] (replicate 3). Also, the entries for the “Released NO” value in the test with RAW 264.7 (replicate 1), in the test on RAW 264.7 (replicate 2) and in the test with RAW 264.7 (replicate 3) were 35.51 µM, 37.58 µM and 33.79 µM, respectively. The “Released NO, mean±SD” value in the test with RAW 264.7 was determined as 35.63 ± 1.89 µM. The sequence also gave an inhibition in test [3] of 8.68 ± 0.49%. The ACE inhibitory activity in test [3] (replicate 1) worked out at 8.11%; in test [3] (replicate 2), 8.96%; in test [3] (replicate 3), 8.96%.

Take “EQIYPMGEGDEL [P4, synthesized peptide identified from jellyfish fraction PUR20C]”: the FRAP in test [1] (setting [4]) is 8.40 mM FeSO4/mg protein; in test [1] (supplement tables, replicate 1), 8.89 mM FeSO4/mg protein; in test [1] (supplement tables, replicate 2), 8.47 mM FeSO4/mg protein; in test [1] (supplement tables, replicate 3), 7.84 mM FeSO4/mg protein. The “DPPH, mean±SD” value in test [2] is 3.81±0.30^E TE/mg protein. In addition, the DPPH is 3.64 TE/mg protein in test [2] (replicate 1), 3.64 TE/mg protein in test [2] (replicate 2) and 4.17 TE/mg protein in test [2] (replicate 3). Further, the “Released NO” value is recorded as 38.96 µM in the test on RAW 264.7 (replicate 1), 35.86 µM with RAW 264.7 (replicate 2) and 36.55 µM in the test on RAW 264.7 (replicate 3). In addition, the “Released NO, mean±SD” value with RAW 264.7 is listed as 37.12 µM. Besides, the “ACE inhibitory activity, mean±SD” value in test [3] is reported as 5.15±0.92^J %. The ACE inhibitory activity in test [3] (replicate 1) worked out at 5.53%; in test [3] (replicate 2), 4.10%; in test [3] (replicate 3), 5.82%.

As for “GKNCGETVWE [P9, synthesized peptide identified from jellyfish fraction PUR20C]”, the FRAP was 13.03±0.8^C mM FeSO4/mg protein in test [1] (setting [4]); 13.31 mM FeSO4/mg protein in test [1] (supplement tables, replicate 1); 13.73 mM FeSO4/mg protein in test [1] (supplement tables, replicate 2); 12.05 mM FeSO4/mg protein in test [1] (supplement tables, replicate 3). For the same sequence, the “DPPH, mean±SD” value in test [2] is 40.86±0.85^C TE/mg protein. For the same sequence, the DPPH in test [2] (replicate 1) was 40.24 TE/mg protein; in test [2] (replicate 2), 41.83 TE/mg protein; in test [2] (replicate 3), 40.51 TE/mg protein. The “Released NO” value is given as 35.86 µM in the test with RAW 264.7 (replicate 1), 36.20 µM in the test on RAW 264.7 (replicate 2) and 34.82 µM in the test with RAW 264.7 (replicate 3). Further, in the test with RAW 264.7, the “Released NO, mean±SD” value worked out at 35.63 ± 0.71 µM. The sequence also showed an inhibition in test [3] of 7.53 ± 1.74%. Moreover, the results for the ACE inhibitory activity in test [3] (replicate 1), in test [3] (replicate 2) and in test [3] (replicate 3) were 5.53%, 8.68% and 8.39%, respectively.

Take “HSVLTASYRN [P5, synthesized peptide identified from jellyfish fraction PUR20C]”: the FRAP amounted to 8.19 mM FeSO4/mg protein in test [1] (setting [4]); 7.63 mM FeSO4/mg protein in test [1] (supplement tables, replicate 1); 9.52 mM FeSO4/mg protein in test [1] (supplement tables, replicate 2); 7.42 mM FeSO4/mg protein in test [1] (supplement tables, replicate 3). The “DPPH, mean±SD” value in test [2] was 3.20 TE/mg protein. The DPPH in test [2] (replicate 1) amounted to 2.84 TE/mg protein; in test [2] (replicate 2), 3.11 TE/mg protein; in test [2] (replicate 3), 3.64 TE/mg protein. Besides, the “Released NO” value worked out at 34.13 µM in the test on RAW 264.7 (replicate 1), 33.44 µM in the test on RAW 264.7 (replicate 2) and 36.20 µM in the test on RAW 264.7 (replicate 3). Moreover, the “Released NO, mean±SD” value in the test on RAW 264.7 is 34.59 ± 1.43 µM. In addition, in test [3], the “ACE inhibitory activity, mean±SD” value was 29.10±3.81^F %. Also, the ACE inhibitory activity in test [3] (replicate 1) is recorded as 24.71%; in test [3] (replicate 2) it was 31.01%; in test [3] (replicate 3), 31.58%.

For the sequence “KFNEVVYFL [P15, synthesized peptide identified from jellyfish fraction PUR20C]”, the FRAP in test [1] (setting [4]) is listed as 4.61±0.73^H mM FeSO4/mg protein; in test [1] (supplement tables, replicate 1), 3.84 mM FeSO4/mg protein; in test [1] (supplement tables, replicate 2), 4.68 mM FeSO4/mg protein; in test [1] (supplement tables, replicate 3), 5.31 mM FeSO4/mg protein. Besides, the “DPPH, mean±SD” value in test [2] is on record as 6.20±1.00^D TE/mg protein. Besides, the DPPH turned out to be 5.49 TE/mg protein in test [2] (replicate 1), 5.76 TE/mg protein in test [2] (replicate 2) and 7.35 TE/mg protein in test [2] (replicate 3). The “Released NO” value came to 32.75 µM with RAW 264.7 (replicate 1), 32.75 µM in the test with RAW 264.7 (replicate 2) and 34.82 µM with RAW 264.7 (replicate 3). In addition, the “Released NO, mean±SD” value in the test with RAW 264.7 worked out at 33.44 µM. Also, the “ACE inhibitory activity, mean±SD” value in test [3] was 55.43±3.55^C %. Besides, the ACE inhibitory activity was 57.63% in test [3] (replicate 1), 51.33% in test [3] (replicate 2) and 57.34% in test [3] (replicate 3).

Values taken from publication PMC11813147, “Bioactivity assessment of peptides derived from salted jellyfish (Rhopilema hispidum) byproducts” (PLOS ONE, 2025).
